Among the data in PubChem BioAssay (NCI) are TGI and GI50 values, retold here.

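Exposure lasted 48 hours, with cells grown in 96-well plates and compounds tested at five concentrations. The concentration for 50% growth inhibition is given as GI50. TGI marks complete inhibition of growth.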

Some test systems named below: PC-3 prostate; U251 CNS; NCI/ADR-RES ovarian; M14 melanoma; HOP-92 NSCLC.
Common to all, as to assay: NCI tumour cell line growth inhibition, 48 h

For the compound `NC1=NC(c2ccc(Cl)cc2)N(c2ccc(S(=O)(=O)Nc3ncccn3)cc2)C(N)=N1` (stereo not given), the TGI with PC-3 prostate, in the experiment with U251 CNS, in the experiment on NCI/ADR-RES ovarian, in the experiment on M14 melanoma and in the experiment on HOP-92 NSCLC was above 100 µM each time.

`Cc1cc2cccnc2c2ncccc12`: the GI50 is 1.57 µM in the experiment on PC-3 prostate; 0.703 µM in the experiment with U251 CNS; 0.315 µM in the experiment on NCI/ADR-RES ovarian; 1.26 µM in the experiment on M14 melanoma; 2.38 µM in the experiment on HOP-92 NSCLC. For the same compound, the TGI in the experiment on PC-3 prostate is 34.4 µM; in the experiment on U251 CNS it was 12.1 µM; with NCI/ADR-RES ovarian, 1.84 µM; in the experiment on M14 melanoma, 5.32 µM; in the experiment on HOP-92 NSCLC, 17.2 µM.

For `N#CC(C#N)=Cc1c(-c2ccccc2)[nH]c2ccccc12`, the GI50 in the experiment with PC-3 prostate was 2.9 µM; with U251 CNS, 1.18 µM; in the experiment with NCI/ADR-RES ovarian, 0.82 µM; with M14 melanoma, 1.88 µM; in the experiment on HOP-92 NSCLC, 5.6 µM. The TGI with PC-3 prostate is above 70.8 µM; with U251 CNS, 28 µM; in the experiment with NCI/ADR-RES ovarian, above 45.2 µM; with M14 melanoma, above 56.6 µM; in the experiment on HOP-92 NSCLC it was above 100 µM.

With `CC[C@@]1(OC(=O)CN)C(=O)OCc2c1cc1n(c2=O)Cc2cc3cc4c(cc3nc2-1)OCO4`, the GI50 in the experiment on PC-3 prostate is 0.0275 µM; in the experiment with U251 CNS, below 0.01 µM; in the experiment on NCI/ADR-RES ovarian, below 0.01 µM; in the experiment with M14 melanoma, below 0.01 µM; with HOP-92 NSCLC it was below 0.01 µM. The TGI in the experiment with PC-3 prostate was above 100 µM; in the experiment on U251 CNS, 0.202 µM; in the experiment with NCI/ADR-RES ovarian, 0.015 µM; in the experiment with M14 melanoma it was 0.0439 µM; in the experiment with HOP-92 NSCLC, 0.404 µM.

Regarding `O=C(Cn1c(=O)c(-c2ccccc2)nc2ccccc21)c1ccc(Cl)cc1`, the GI50 is 34.6 µM in the experiment on PC-3 prostate; 37.6 µM in the experiment with U251 CNS; 48 µM with NCI/ADR-RES ovarian; above 100 µM in the experiment with M14 melanoma; 27.2 µM in the experiment on HOP-92 NSCLC. Also, the TGI in the experiment with PC-3 prostate is above 100 µM; in the experiment on U251 CNS it was above 100 µM; in the experiment on NCI/ADR-RES ovarian, above 100 µM; with M14 melanoma, above 100 µM; with HOP-92 NSCLC, 65 µM.

Take `CC(=O)Nc1ccc(-c2c3nc(c(-c4cc5ccccc5[n+](C)c4)c4ccc([nH]4)c(-c4ccc(NC(C)=O)cc4)c4nc(c(-c5cc6ccccc6[n+](C)c5)c5ccc2[nH]5)C=C4)C=C3)cc1`: the GI50 was 15.1 µM with PC-3 prostate; 13.5 µM in the experiment on U251 CNS; 13.3 µM in the experiment on NCI/ADR-RES ovarian; 28.6 µM in the experiment on M14 melanoma; 23.9 µM with HOP-92 NSCLC. For the same compound, the TGI is above 50 µM in the experiment on PC-3 prostate; above 50 µM in the experiment on U251 CNS; 45.7 µM in the experiment with NCI/ADR-RES ovarian; above 50 µM in the experiment on M14 melanoma; above 50 µM with HOP-92 NSCLC.

As to `O=C(/C=C/c1ccccc1)c1c[nH]c2ccccc2c1=O`, the GI50 was 5.63 µM with PC-3 prostate; 2.29 µM in the experiment on U251 CNS; 2.93 µM in the experiment with NCI/ADR-RES ovarian; 3.49 µM in the experiment on M14 melanoma; 3.9 µM in the experiment on HOP-92 NSCLC. The TGI came to 33.1 µM in the experiment with PC-3 prostate; 11 µM in the experiment on U251 CNS; 13 µM with NCI/ADR-RES ovarian; 11.6 µM with M14 melanoma; 13 µM in the experiment on HOP-92 NSCLC.

On to `O=C(CCN1CCOCC1)Nc1ccc(F)cc1F`, for which the TGI in the experiment with PC-3 prostate, in the experiment on U251 CNS, in the experiment on NCI/ADR-RES ovarian, with M14 melanoma and in the experiment on HOP-92 NSCLC was above 100 µM each time.

As for `COc1ccc2c(c1)[C@]1(C[C@H]1c1ccc3c(/C=C/c4ccc(CN5C[C@@H](C)O[C@@H](C)C5)cc4)n[nH]c3c1)C(=O)N2`, the GI50 in the experiment with PC-3 prostate was 2.54 µM; in the experiment on U251 CNS it was 5.14 µM; in the experiment with NCI/ADR-RES ovarian, 2.71 µM; in the experiment on M14 melanoma it was 3.25 µM; in the experiment with HOP-92 NSCLC, 5.34 µM. The TGI in the experiment on PC-3 prostate is above 100 µM; with U251 CNS, 45.6 µM; in the experiment on NCI/ADR-RES ovarian, 24.9 µM; in the experiment on M14 melanoma it was 20.6 µM; in the experiment with HOP-92 NSCLC, 39.1 µM.

For the compound `Cc1cc(=O)oc2c(CN3CCCCC3)c(O)ccc12`, the TGI in the experiment with PC-3 prostate, in the experiment with U251 CNS, in the experiment on NCI/ADR-RES ovarian, in the experiment with M14 melanoma and in the experiment with HOP-92 NSCLC was above 100 µM in each case.

For the compound `CN1CCN(CCCOc2cccc3nc(Nc4ccc(Cl)c(F)c4)ccc23)CC1`, the GI50 with PC-3 prostate was 1.76 µM; in the experiment with U251 CNS, 1.81 µM; in the experiment on NCI/ADR-RES ovarian it was 1.8 µM; in the experiment on M14 melanoma, 1.73 µM; with HOP-92 NSCLC, 1.33 µM. Moreover, the TGI stood at 3.41 µM with PC-3 prostate; 3.28 µM in the experiment with U251 CNS; 3.77 µM in the experiment on NCI/ADR-RES ovarian; 3.37 µM in the experiment on M14 melanoma; 5.27 µM in the experiment on HOP-92 NSCLC.

For `Cn1cc(C2=C(c3c4n(c5ccccc35)CCCC4)C(=O)NC2=O)c2ccccc21`, the GI50 in the experiment with PC-3 prostate was 10.4 µM; in the experiment on U251 CNS, 13.2 µM; in the experiment with NCI/ADR-RES ovarian it was 7.81 µM; with M14 melanoma, 13.4 µM; with HOP-92 NSCLC it was 8.89 µM. Besides, the TGI in the experiment with PC-3 prostate, with U251 CNS, in the experiment on NCI/ADR-RES ovarian, in the experiment with M14 melanoma and in the experiment on HOP-92 NSCLC was above 25 µM throughout.

`COc1cc2ccccc2c2cc([N+](=O)[O-])oc12`: the TGI with PC-3 prostate was above 100 µM; in the experiment on U251 CNS it was 7.14 µM; with NCI/ADR-RES ovarian it was 32.1 µM; in the experiment on M14 melanoma, 0.608 µM; in the experiment with HOP-92 NSCLC, 4.54 µM.

`COc1ccc(-c2nn(-c3ccc(NC(=O)c4ccc(Cl)c(C(F)(F)F)c4)cc3)cc2-c2ccncc2)cc1Cl`: the GI50 was 0.669 µM in the experiment with PC-3 prostate; 0.408 µM with U251 CNS; 2.07 µM in the experiment with NCI/ADR-RES ovarian; 0.471 µM in the experiment with M14 melanoma; 1.71 µM in the experiment on HOP-92 NSCLC. Moreover, the TGI is above 100 µM in the experiment on PC-3 prostate; 7.82 µM with U251 CNS; above 100 µM with NCI/ADR-RES ovarian; 3.08 µM in the experiment with M14 melanoma; 21.6 µM in the experiment on HOP-92 NSCLC.

For the compound `O=S(=O)(Nc1cc(Br)c(O)c2ccccc12)c1ccc(F)cc1`, the GI50 is 2.93 µM in the experiment with PC-3 prostate; 2.96 µM with U251 CNS; 2.96 µM in the experiment on NCI/ADR-RES ovarian; 2.42 µM in the experiment on M14 melanoma; 1.95 µM in the experiment with HOP-92 NSCLC. The TGI in the experiment with PC-3 prostate was 12.9 µM; in the experiment on U251 CNS, 7.77 µM; in the experiment with NCI/ADR-RES ovarian it was 8.68 µM; in the experiment on M14 melanoma, 6.12 µM; with HOP-92 NSCLC, 4.54 µM.
